# Assays:
# [1] = test system: MCF7/ADR; experiment: Soft agar colony formation disk diffusion assay; type: cell-based, human
# Excerpt: (§1) A more elaborate version of this fundamental assay, the soft agar colony formation disk diffusion assay was used. This assay defines the relative activity of one particular drug versus a tumoral cell line type. The effect of the test drug against tumoral cells could be measured by its inhibitory capacity against colony formation after the delivery of the compound, in different concentrations on an filter disk(4). A modified technique of this assay was used in order to investigate the antiproliferative activity of candidate compounds. Tumoral cells from solid tumors and ascitic lines were plated separately in a two layer agar matrix. Cell lines to be tested were suspended in an upper layer of 0.4% Noble agar (Difco#00142-01) in RPMI-1066 (Gibco#3201875) at a yield varying between 10^4 to 2×10^5 cells per 60 mm Petri dish. Plating efficiency was determined for each line in order to achieve an optimal number of colonies per dish. Plates were examined before drug administration to confirm a uniform dispersion of single cells. The bottom layer consisted of 0.8% Noble agar, 0.8% Tryptic Soy Broth (difco#0037001)in CMRL-1066/Fischer's. The bottom layers were used within 2 and 9 days of preparation. Plated dishes (bottom layer of agar, upper layer of cells and administered drug were incubated in humidified atmosphere at 37° C., 5% CO2 for 10-20 days depending upon the time necessary to observe adequate colonies (defined as a cell aggregate of more than 50 cells) both control and drug inhibited. Drugs were administered on a paper filter disk (Whatman No. 1) of 6.5 mm diameter placed on the upper layer at 1/3 distance from the edge of the dish. The anti-clonogenic activity of the compounds was measured as the zone of inhibition from the disk edge to the most proximal colonies. This zone of inhibition was checked on an inverted microscope (40×) and was measured with a micrometer mounted in the eyepiece. The ocular micrometer was calibrated with a stage micrometer set for a particular combination of ocular and objective lenses. […] We made a modification of the initial technique by not plating a solid tumor and a leukemia simultaneously in the same Petri dish. Anti-clonogenic tests performed on leukemia cell line have helped in the discovery of the majority of current clinically used cytostatic drugs. Our tests on solid tumor lines (animal or human) may help define active compounds with solid tumor specificity. […] HUMAN TUMORS. […] LS180 (13) and BE1(14) were obtained from the Oncology Dept. of the Montreal General Hospital. […] Cell lines were routinely passaged twice a week by trypsinization and maintained in 25, or 75-sq. cm Falcon Plastic flasks at 37° C., 5% CO2 in humidified atmosphere. Both compounds were dissolved in DMSO (1 mg/100 ul) and brought to final volume (250 ul) with Millipore deionized sterile water. Further dilutions were made with […] volume of 25 ul of freshly prepared solution was placed on the filter disk and allowed to dry.
# [2] = test system: MCF7; experiment: Soft agar colony formation disk diffusion assay; type: cell-based, human
# Excerpt: as §1
# [3] = test system: tumor cell lines; experiment: Tumor clonogenic assay, overall; type: cell-based
# Excerpt: For the IN VITRO test, we chose a tumor clonogenic assay which measures the ability of tumoral cells to form colonies (multicellular growth units) as a result of cell division in semisolid agar support (2,3). A more elaborate version of this fundamental assay, the soft agar colony formation disk diffusion assay was used. This assay defines the relative activity of one particular drug versus a tumoral cell line type. The effect of the test drug against tumoral cells could be measured by its inhibitory capacity against colony formation after the delivery of the compound, in different concentrations on an filter disk(4).
# A modified technique of this assay was used in order to investigate the antiproliferative activity of candidate compounds. Tumoral cells from solid tumors and ascitic lines were plated separately in a two layer agar matrix. Cell lines to be tested were suspended in an upper layer of 0.4% Noble agar (Difco#00142-01) in RPMI-1066 (Gibco#3201875) at a yield varying between 10^4 to 2×10^5 cells per 60 mm Petri dish. Plating efficiency was determined for each line in order to achieve an optimal number of colonies per dish. Plates were examined before drug administration to confirm a uniform dispersion of single cells. The bottom layer consisted of 0.8% Noble agar, 0.8% Tryptic Soy Broth (difco#0037001)in CMRL-1066/Fischer's. The bottom layers were used within 2 and 9 days of preparation. Plated dishes (bottom layer of agar, upper layer of cells and administered drug were incubated in humidified atmosphere at 37° C., 5% CO2 for 10-20 days depending upon the time necessary to observe adequate colonies (defined as a cell aggregate of more than 50 cells) both control and drug inhibited. Drugs were administered on a paper filter disk (Whatman No. 1) of 6.5 mm diameter placed on the upper layer at 1/3 distance from the edge of the dish. The anti-clonogenic activity of the compounds was measured as the zone of inhibition from the disk edge to the most proximal colonies. This zone of inhibition was checked on an inverted microscope (40×) and was measured with a micrometer mounted in the eyepiece. The ocular micrometer was calibrated with a stage micrometer set for a particular combination of ocular and objective lenses.
# 200 units of activity are equivalent to 6.5 mm distance from the disk edge to the first colonies (5). […] We made a modification of the initial technique by not plating a solid tumor and a leukemia simultaneously in the same Petri dish. Anti-clonogenic tests performed on leukemia cell line have helped in the discovery of the majority of current clinically used cytostatic drugs. Our tests on solid tumor lines (animal or human) may help define active compounds with solid tumor specificity. This specific activity would be indicated by a higher level of cloning inhibition in solid tumors versus leukemias (6).
# [4] = test system: LS180; experiment: Soft agar colony formation disk diffusion assay; type: cell-based, human
# Excerpt: as §1
# [5] = test system: M5076; experiment: Soft agar colony formation disk diffusion assay; type: cell-based, murine
# Excerpt: (§2) A more elaborate version of this fundamental assay, the soft agar colony formation disk diffusion assay was used. This assay defines the relative activity of one particular drug versus a tumoral cell line type. The effect of the test drug against tumoral cells could be measured by its inhibitory capacity against colony formation after the delivery of the compound, in different concentrations on an filter disk(4). A modified technique of this assay was used in order to investigate the antiproliferative activity of candidate compounds. Tumoral cells from solid tumors and ascitic lines were plated separately in a two layer agar matrix. Cell lines to be tested were suspended in an upper layer of 0.4% Noble agar (Difco#00142-01) in RPMI-1066 (Gibco#3201875) at a yield varying between 10^4 to 2×10^5 cells per 60 mm Petri dish. Plating efficiency was determined for each line in order to achieve an optimal number of colonies per dish. Plates were examined before drug administration to confirm a uniform dispersion of single cells. The bottom layer consisted of 0.8% Noble agar, 0.8% Tryptic Soy Broth (difco#0037001)in CMRL-1066/Fischer's. The bottom layers were used within 2 and 9 days of preparation. Plated dishes (bottom layer of agar, upper layer of cells and administered drug were incubated in humidified atmosphere at 37° C., 5% CO2 for 10-20 days depending upon the time necessary to observe adequate colonies (defined as a cell aggregate of more than 50 cells) both control and drug inhibited. Drugs were administered on a paper filter disk (Whatman No. 1) of 6.5 mm diameter placed on the upper layer at 1/3 distance from the edge of the dish. The anti-clonogenic activity of the compounds was measured as the zone of inhibition from the disk edge to the most proximal colonies. This zone of inhibition was checked on an inverted microscope (40×) and was measured with a micrometer mounted in the eyepiece. The ocular micrometer was calibrated with a stage micrometer set for a particular combination of ocular and objective lenses. […] We made a modification of the initial technique by not plating a solid tumor and a leukemia simultaneously in the same Petri dish. Anti-clonogenic tests performed on leukemia cell line have helped in the discovery of the majority of current clinically used cytostatic drugs. Our tests on solid tumor lines (animal or human) may help define active compounds with solid tumor specificity. […] Murine tumors were maintained IN VIVO in order to diminish the selection of subpopulations of cells normally present in the heterogenous IN VIVO tumor. The actual drug sensitivity assay was done IN VITRO. For these experiments cells from freshly excised tumors or from ascitic fluids were maintained in RPMI-1066. Both compounds were dissolved in DMSO (1 mg/100 ul) and brought to final volume (250 ul) with Millipore deionized sterile water. Further dilutions were made with […] volume of 25 ul of freshly prepared solution was placed on the filter disk and allowed to dry.
# [6] = test system: P388/ADR; experiment: Soft agar colony formation disk diffusion assay; type: cell-based, murine
# Excerpt: as §2
# [7] = test system: P388; experiment: Soft agar colony formation disk diffusion assay; type: cell-based, murine
# Excerpt: as §2
# [8] = test system: B16; experiment: Soft agar colony formation disk diffusion assay; type: cell-based, murine
# Excerpt: as §2
# [9] = test system: MATB/ADR; experiment: Soft agar colony formation disk diffusion assay; type: cell-based, rat
# Excerpt: as §2
# [10] = test system: MATB.WT; experiment: Soft agar colony formation disk diffusion assay; type: cell-based, rat
# Excerpt: as §2
# [11] = test system: HT29; experiment: Soft agar colony formation disk diffusion assay; type: cell-based, human
# Excerpt: as §1, with “This assay defines the relative activity of one particular drug versus a tumoral cell line type.” left out, “Plates were examined before drug administration to confirm a uniform dispersion of single cells.” left out, “dish.” for “dish. Anti-clonogenic tests performed on leukemia cell line have helped in the discovery of the majority of current clinically used cytostatic drugs. Our tests on solid tumor lines (animal or human) may help define active compounds with solid tumor specificity.”
# [12] = test system: tumor; conditions: cited from earlier work
smiles,measurement,setting,value
COC(=O)[C@H]1CC2=C(C(=O)c3cc4ccccc4c(O)c3C2=O)[C@H](O[C@H]2C[C@H](NC(=O)C(F)(F)F)[C@H](O)[C@H](C)O2)O1 [BCH-706],"cross resistance with adriamycin, MCF7/ADR vs MCF7",[1],lack of cross resistance with adriamycin
same,zone of inhibition,[1]; 10 μg/DISK,91.5 ± 8.6 Zone Units
same,zone of inhibition,[1]; 100 μg/DISK,183.0 Zone Units
same,zone of inhibition,[2]; 10 μg/DISK,103.7 ± 25.5 Zone Units
same,zone of inhibition,[2]; 100 μg/DISK,213.5 ± 43.1 Zone Units
same,activity and specificity in words,[3],most active
"CCOC(=O)C1Cc2c(O)c3c(c(O)c2CS1)C(=O)c1ccccc1C3=O (centres unmarked) [BCH-713, 3-carbethoxy-5,12-dihydroxy-1,2,3,4-tetrahydro-(2-sulfur)naphthacene-6,11-dione]",zone of inhibition,[1]; 10 μg/DISK,24.0 ± 8.6 Zone Units
same,zone of inhibition,[1]; 100 μg/DISK,94.5 ± 64.7 Zone Units
same,zone of inhibition,[4]; 10 μg/DISK,0 Zone Units
same,zone of inhibition,[4]; 100 μg/DISK,45.7 ± 21.5 Zone Units
same,zone of inhibition,[2]; 10 μg/DISK,0 Zone Units
same,zone of inhibition,[2]; 100 μg/DISK,0 Zone Units
same,zone of inhibition,[5]; 10 μg/DISK,0 Zone Units
same,zone of inhibition,[5]; 100 μg/DISK,42.7 ± 8.6 Zone Units
same,zone of inhibition,[6]; 10 μg/DISK,0 Zone Units
same,zone of inhibition,[6]; 100 μg/DISK,61.0 ± 0.0 Zone Units
same,zone of inhibition,[7]; 10 μg/DISK,0 Zone Units
same,zone of inhibition,[7]; 100 μg/DISK,45.7 ± 21.5 Zone Units
same,zone of inhibition,[8]; 10 μg/DISK,0 Zone Units
same,zone of inhibition,[8]; 100 μg/DISK,24.4 ± 8.6 Zone Units
same,zone of inhibition,[9]; 10 μg/DISK,0 Zone Units
same,zone of inhibition,[9]; 100 μg/DISK,0 Zone Units
same,zone of inhibition,[10]; 10 μg/DISK,0 Zone Units
same,zone of inhibition,[10]; 100 μg/DISK,27.4 ± 4.3 Zone Units
same,zone of inhibition,[11]; 10 μg/DISK,0 Zone Units
same,zone of inhibition,[11]; 100 μg/DISK,0 Zone Units
"COCOCC(=O)C1CC2=C(CO1)C(=O)c1c(cc3ccccc3c1O)C2=O (centres unmarked) [BCH-714, 3-(2-methoxymethoxy)aceto-11-hydroxy-1,2,3,4-tetrahydro-(2-oxygen)-napthacene-5,12-dione]",zone of inhibition,[1]; 10 μg/DISK,0 Zone Units
same,zone of inhibition,[1]; 100 μg/DISK,0 Zone Units
same,zone of inhibition,[4]; 10 μg/DISK,9.0 ± 4.2 Zone Units
same,zone of inhibition,[4]; 100 μg/DISK,42.0 ± 26.0 Zone Units
same,zone of inhibition,[2]; 10 μg/DISK,0 Zone Units
same,zone of inhibition,[2]; 100 μg/DISK,0 Zone Units
same,zone of inhibition,[5]; 10 μg/DISK,15.5 ± 5.0 Zone Units
same,zone of inhibition,[5]; 100 μg/DISK,55.0 ± 8.4 Zone Units
same,zone of inhibition,[6]; 10 μg/DISK,0 Zone Units
same,zone of inhibition,[6]; 100 μg/DISK,0 Zone Units
same,zone of inhibition,[7]; 10 μg/DISK,0 Zone Units
same,zone of inhibition,[7]; 100 μg/DISK,27.0 ± 4.2 Zone Units
same,zone of inhibition,[8]; 10 μg/DISK,0 Zone Units
same,zone of inhibition,[8]; 100 μg/DISK,0 Zone Units
same,zone of inhibition,[9]; 10 μg/DISK,0 Zone Units
same,zone of inhibition,[9]; 100 μg/DISK,0 Zone Units
same,zone of inhibition,[10]; 10 μg/DISK,0 Zone Units
same,zone of inhibition,[10]; 100 μg/DISK,0 Zone Units
same,zone of inhibition,[11]; 10 μg/DISK,0 Zone Units
same,zone of inhibition,[11]; 100 μg/DISK,0 Zone Units
CC1OC2CC(=O)OC2C2=C1C(=O)c1c(O)c3c(c(O)c1C2=O)C1CC(O)C3(O)C(C)O1 (centres unmarked) [Granaticin],antitumor activity,[12],antitumor activity

# From patent publication US5593970A, “Heterocyclic anthracycline analogs” (priority 1994, dated 1997)
